{"source": "patent US20120164104A1", "about": "“Composition and Methods of Treating Viral Infections and Viral Induced Tumors” (Chimerix, Inc., priority 2009, published 2012)", "key": {"[1]": {"system": "BKV(Dunlop)", "experiment": "BKV early and late protein expression in infected RPTECs (immunofluorescence, western blot)", "type": "cell-based", "details": "for LTag staining reduced / decrease of VP1 by western blotting: CMX001 0.31 μM", "experimental": "For FIG. 1(b), indirect immunofluorescence of untreated and CMX001 treated BKV-infected RPTECs, methanol fixed 72 h pd. and stained with rabbit anti-agnoprotein serum (green) for visualization of the late agnoprotein and with the SV40 LTag monoclonal Pab416 for visualization og BKV LTag (red). Cell density is shown by Drac 5 staining in blue.\nFor FIG. 4(a), indirect immunofluorescence of untreated and CMX001 treated BKV-infected RPTECs, methanol fixed 48 and 72 h p.i. and stained with rabbit anti-agnoprotein serum (green) for visualization of the late agnoprotein and with the SV40 LTag monoclonal Pab416 for visualization of BKV LTag (red). For FIG. 4(b), cell extracts from CMX001-treated and untreated BKV-infected RPTECs were harvested 48 and 72 h p.i. and western blot performed with rabbit anti-BKV VP1, anti-agnoprotein serum and a monoclonal antibody directed against the housekeeping protein GAPDH.\nPrimary human renal proximal tubule epithelial cells (RPTECs), BKV(Dunlop) and all methods as previously described by Bernhoff et al (See Bernhoff et al., Cidofovir inhibits polyomavirus BK replication in human renal tubular cells downstream of viral early gene expression, Am J Transplant 8, 1413-1422 (2008).) Only one exception, quantitative PCR (qPCR) to quantify intracellular or extracellular BKV DNA load was performed with a different primer/probe set also targeting the LTag gene (See Hirsch, et al., J. Prospective study of polyomavirus type BK replication and nephropathy in renal-transplant recipients, N Engl J. Med., 347, 488-496 (2002)). Before each experiment, CMX001 was freshly dissolved to 1 mg/ml in methanol/water/ammonium hydroxide (50/50/2). It was further diluted in RPTEC growth medium.\nTo investigate expression of LTag at the single-cell level, immunofluorescence staining at 48 and 72 h p.i was performed. At 48 h p.i. the number of BKV positive cells was almost the same in CMX001 and untreated wells. At 72 h p.i., the CMX001 treated cells seemed to express less LTag pro cell (FIG. 4a)."}, "[2]": {"system": "BKV(Dunlop)", "experiment": "Intracellular BKV load per cell in RPTECs (qPCR)", "type": "cell-based", "details": "CMX001 0.31 μM", "experimental": "FIG. 3 illustrates the influence of CMX001 0.31 μM on BKV genome replication. For Figure, CMX001-treated and untreated BKV-infected RPTECs were harvested at indicated timepoints and intracellular BKV DNA load per cell was measured by qPCR.\nTo investigate whether the BKV genome replication was affected by CMX001, intracellular BKV load at 24-72 h p.i. by qPCR was measured. The intracellular BKV load was normalized to the cell number using the aspartoacylase (ACY) gene as described (See Bernhoff et al., 2008; Randhawa, et al., Quantitation of DNA of polyomaviruses BK and JC in human kidneys. J Infect Dis., 192, 504-509 (2005)). Compared to untreated RPTECs, CMX001 0.31 μM reduced the intracellular BKV load by 94% at 48 h and 63% at 72 h p.i. (FIG. 3). Then, a significant inhibitory effect of CMX001 on intracellular BKV genome replication, which is the second step of the BKV lifecycle may be identified. This step is known to require LTag expression which also increases viral late gene expression by two mechanisms: 1. increasing the DNA templates for late gene transcription and 2. by activating transcription from the late promoter (Cole, C. N., Polyomavirinae: The Viruses and Their Replication. In Fields Virology, Third edn, pp. 1997-2043. Edited by B. N. Fields, D. M. Knipe & P. H. Howley. New York: Lippincott-Raven (1996).)"}, "[3]": {"system": "RPTECs", "experiment": "Inspection of RPTECs by phase contrast microscopy", "type": "cell-based, human", "details": "3 day exposure to CMX001 0.31 μM"}, "[4]": {"system": "EBV", "experiment": "CMX001 in human patients with EBV-associated PTLD", "type": "in vivo", "details": "for EBV viral load: heart transplant recipient", "text": "The first patient is a patient with a history of sickle cell anemia developed EBV-associated intracranial post-transplant lymphoproliferative disorder (PTLD). EBV was positive in the plasma (7 Dec. and 14 Dec. 2010) and brain biopsies were consistent with PTLD. In early December, the patient presented with a 3 day history of persistent headache, nausea, vomiting, and diarrhea. […] The patient was admitted to PICU. High intracranial pressure, repetitive seizures associated with apnea led to intubation and emergency request for CMX001. The use of CMX001 in this patient with EBV-associated PTLD is ongoing since […].\nThe second patient was a heart transplant recipient with EBV-associated PTLD. The patient acquired a primary EBV infection post-operatively. […] The clinical condition continued to destabilize with what was presumed to be EBV-associated encephalitis with EBV detected in the CSF, clinical and EEG-correlated seizure activity and decreased responsiveness and changes in mental status. At the time of request for CMX001, the patient was on mechanical ventilation, had evidence of both pneumonia and PTLD of their lungs, evidence of seizure activity with clinical criteria for encephalopathy being present. The patient received their first dose of CMX001, 20 mg (approximately 3.3 mg/kg) on 3 Mar. 2010, and their second dose on 7 Mar. […] The patient continued to show evidence of progressive neurologic injury. The parents withdrew support on the day following their second dose of CMX001."}}}
{"molecule": "CCCCCCCCCCCCCCCCOCCCOP(=O)(O)CO[C@H](CO)Cn1ccc(N)nc1=O", "note": "[CMX001]", "values": [{"measurement": "BKV-infected cells by immunofluorescence staining", "setting": "[1]; 5 uM CMX001, 72 h p.i.", "result": "only few weakly LTag stained cells but no agnoprotein expressing cells were observed"}, {"measurement": "BKV-infected cells by immunofluorescence staining", "setting": "[1]; 10 uM CMX001, 72 h p.i.", "result": "no BKV-infected cell was observed"}, {"measurement": "LTag staining reduced", "setting": "[1]; 48 h p.i.", "result": 33, "unit": "%"}, {"measurement": "decrease of VP1 by western blotting", "setting": "[1]; 48 h p.i.", "result": 86, "unit": "%"}, {"measurement": "LTag staining reduced", "setting": "[1]; 72 h p.i.", "result": 30, "unit": "%"}, {"measurement": "decrease of VP1 by western blotting", "setting": "[1]; 72 h p.i.", "result": 63, "unit": "%"}, {"measurement": "decrease in BKV agnoprotein expressing cells", "setting": "[1]; CMX001 0.31 uM, immunofluorescence 72 h p.i.", "result": "approximately 60%"}, {"measurement": "reduction of intracellular BKV load", "setting": "[2]; 48 h p.i.", "result": 94, "unit": "%"}, {"measurement": "reduction of intracellular BKV load", "setting": "[2]; 72 h p.i.", "result": 63, "unit": "%"}, {"measurement": "signs of impaired viability", "setting": "[3]", "result": "did not reveal any signs of impaired viability"}, {"measurement": "EBV viral load", "setting": "[4]; 3 Mar. 2010 (day of first dose, 20 mg)", "result": "267,338 copies/mL"}, {"measurement": "EBV viral load", "setting": "[4]; 7 Mar. 2010 (day of second dose)", "result": "47,427 copies/mL"}, {"measurement": "EBV in the plasma", "setting": "[4]; patient on CMX001", "result": "remains negative"}, {"measurement": "tolerability", "setting": "[4]; patient, 4 mg/kg twice weekly", "result": "tolerated CMX001 well"}, {"measurement": "clinical outcome", "setting": "[4]; patient, intracranial PTLD, 4 mg/kg twice weekly", "result": "clinical improvement of their signs and symptoms of disease as well as stabilization if not reduction of their intracranial mass"}]}
